Data reported in patent US20220023271A1, “COMPOSITION FOR PREVENTING OR TREATING CELLULAR SENESCENCE-RELATED DISEASES COMPRISING ZOTAROLIMUS AS ACTIVE INGREDIENT” (RESEARCH COOPERATION FOUNDATION OF YEUNGNAM UNIVERSITY, priority 2018, published 2022).

Columns and labels:
[1] = tested on: peritoneal fibrosis induced by CHG; experiment: Peritoneal fibrosis induced by chlorhexidine gluconate (CHG) in mice; assay type: in vivo, C57BL/6J mice; conditions: i.p. at 2-day intervals from 9th day; vs DMSO group
Experimental: Animal experiments were conducted with the approval of the Animal Experimental Ethics Committee of Yeungnam University College of Medicine (YUMC-AEC2018-033). Peritoneal fibrosis mice experiments were performed using a model of peritoneal fibrosis induced by chlorhexidine gluconate (CHG) (Yoshio Y et al., Kidney international. 2004).
From the 9th day, 2.5 μl of 10 mM zotarolimus (Zota group) or 2.5 μl of DMSO (DMSO group) was diluted in 100 μl phosphate buffer solution and intraperitoneally injected at intervals of 2 days.
As a negative control (NT group), 100 μl of a 15% ethanol phosphate buffer solution was injected intraperitoneally instead of a 0.1% CHG solution. On the 20th day, the mice were sacrificed, the peritoneal tissue was excised, and the tissue was fixed in 4% paraformaldehyde solution.
The tissue fixed in 10% formalin solution was embedded with paraffin and cut into 4 μm to prepare a tissue sample. After removing paraffin from the tissue sample, hematoxylin-eosin staining, trichrome staining, and PAS staining were performed.
The degree of fibrosis was measured by analyzing the degree of collagen staining using the i-Solution™ software program (IMT Inc., Canada) after trichrome staining and the degree of cell senescence in tissue samples was investigated by staining lipofuscin with Sudan black B (Viegas M S, et al., European journal of histochemistry: EJH. 2007). […]

[2] = tested on: human umbilical vascular endothelial cells (HUVEC); experiment: LDH activity in cell culture solution of vascular endothelial cells; assay type: cell-based; conditions: young and replicative senescent HUVEC; 4 days
Experimental: Cytotoxicity against young and senescent cells was investigated with a lactate dehydrogenase (LDH) activity kit (Dojindo Molecular Technologies Inc.).
Young cells (1×10^3 cells/100 μl/well) or senescent cells (2×10^3 cells/100 μl/well) were dispensed into a 96-well plate, and then cultured overnight in a 37° C., 5% CO2 incubator. Zotarolimus and ABT263 were treated at each concentration, and then incubated for 4 days in a 37° C., 5% CO2 incubator.
After transferring the cell culture solution to a 1.5 ml tube, it was centrifuged at 4° C. and 12,000 rpm. 100 μl of the supernatant was dispensed into a 96-well plate, and 100 μl of the LDH measurement solution was added to each well, followed by reaction in a CO2 incubator for 30 minutes.
50 μl of the LDH reaction stop solution was added, and absorbance was measured at 490 nm using a microplate reader. The level of LDH activity was expressed as a relative value based on the absorbance of the control group treated with only DMSO.
In order to confirm whether the decrease in cell growth caused by zotarolimus as described above was due to cell death, LDH activity was investigated in the cell culture solution.

[3] = tested on: human dermal fibroblasts (HDF); experiment: CCK-8 cell growth analysis in human fibroblasts; assay type: cell-based
Experimental: Each cell was treated in a serum-free culture solution containing 0.5 μM doxorubicin for 4 hours. After washing the cells with a serum-free culture solution, the cells were cultured for 4 days in a culture solution containing 10% FBS, and then cellular aging was confirmed by staining with senescence-associated beta galactosidase (SAβG). After dispensing 2×10^5 cells in a 100 mm culture dish, they were cultured in a 37° C., 5% CO2 incubator. When the cells grew to 80-90% in the culture dish, the cells were removed by treatment with trypsin-EDTA, and the number of cells was measured, and the cell population doubling time (PDT) was measured. After each sample was dissolved in DMSO, young cells, replicative senescent cells, and premature senescent cells treated with doxorubicin were treated with 100 nM zotarolimus, 100 nM rapamycin, 100 nM ABT263, respectively. […] Then, the absorbance was measured at 450 nm using a microplate reader. The degree of cell growth was expressed as a relative value for the absorbance of the control group treated with only DMSO as 100%. […]

With `CO[C@H]1C[C@@H]2CC[C@@H](C)[C@@](O)(O2)C(=O)C(=O)N2CCCC[C@H]2C(=O)O[C@H]([C@H](C)C[C@@H]2CC[C@H](n3cnnn3)[C@H](OC)C2)CC(=O)[C@H](C)/C=C(\C)[C@@H](O)[C@@H](OC)C(=O)[C@H](C)C[C@H](C)/C=C/C=C/C=C/1C` [zotarolimus] the “degree of fibrosis (peritoneal)” value [1] was “decreased”, the “thickness of the peritoneal mesothelial cell layer” value [1] was “significantly reduced” and the “LDH activity in the cell culture solution” value [2] was “no difference in LDH activity”. For the same compound, the “cell growth (CCK-8)” value ([3]; premature senescent fibroblasts by doxorubicin, 100 nM, 4 days, vs DMSO) was “significantly decreased” and the “cell growth with increasing concentration of zotarolimus” value ([3]; young vs replicative senescent fibroblasts, concentration-dependent) was “more markedly decreased in senescent cells compared to young cells”.
